A short description of data set [1]: in vitro. The conditions noted are these: rabbit, gastric mucosal cells.
Data set [2] has as its system gastric mucosa. The experiment in a line: PD: Gastric Mucosal Integrity Test (gastric mucosal potential difference). The data set is classed as in vivo, rat (male Crj:SD). Details: key: 5: Same as the control with no recognizable damage at all.; 4: Though a slight PD-decreasing tendency suggesting a slight possibility of mucosal damage is found, there is no problem.; 3: Though a weak decrease in PD and a possibility of a weak mucosal damage is recognized, there is no substantial problem.; 2: Medium degree of decrease in PD is found and a mucosal damage is recognized.; 1: Heavy degree of decrease in PD is found and a remarkable mucosal damage is recognized. The following applies: 100 mg/kg into chamber, rats, 60 minutes. The method, then:
PD: Gastric Mucosal Integrity Test
In this case, since the sample compound has a necrotizing effect, it is inappropriate as an anti-ulcer medicament.
Therefore, the gastric mucosal potential difference (PD), which reflects the integrity of the gastric mucosa, is measured so as to confirm that the sample compound has no damaging effect on gastric mucosa, which is toxicity at gastric mucosal level.
Male Crj:SD rats (7 to 8-week-old) were fasted overnight, but allowed free access to water, and then, under urethane anesthesia (1.25 g/kg, i.p.), fixed to a cork board on its back. The abdomen of each rat was incised, and a small incision was made in the forestomach. Then, the inside of the stomach was washed with physiological saline heated at 37° C. From the forestomach, along the greater curvature thereof, the stomach was incised without damaging blood vessels. After the height of the cork board was adjusted on a jack, the stomach was mounted on ex vivo chamber. The area of the gastric mucosa exposed to the inside of this chamber was 2.5 cm^2. The inside of the chamber was perfused with physiological saline warmed at 37° C. by micro tube pump. By using an agar bridge containing 3M KCl, the potential difference between the chamber and the abdominal cavity was measured by a PD meter. Here, the rectal temperature was measured to control the body temperature during the experiment. After the PD was sufficiently stabilized, the perfusate was stopped and then 100 mg/10 ml/kg of the sample compound dissolved or suspended in an aqueous solution of 0.5% sodium carboxymethyl cellulose or 0.05% Tween 80 was administered into the chamber, while PD was recorded for 60 minutes. To a control, the vehicle was administered.
The change in PD during 60 minutes after the administration of 100 mg/kg of the sample compound was collectively studied and, with reference to the positive control, classified into 5 levels as follows:
5: Same as the control with no recognizable damage at all.
3: Though a weak decrease in PD and a possibility of a weak mucosal damage is recognized, there is no substantial problem.
2: Medium degree of decrease in PD is found and a mucosal damage is recognized.
1: Heavy degree of decrease in PD is found and a remarkable mucosal damage is recognized.

The values that follow come from US5814634A, “Alkylenediamine derivative anti-ulcer drug and antibacterial drug” (Shiseido Co. Ltd., priority 1996, dated 1998).

As to `CC(C)=CCOc1ccc(C(=O)NCCN2CCOCC2)cc1` [Example 28], the cytotoxicity at 4 h, 100 µM in data set [1] is -39%. Moreover, the “PD: change in gastric mucosal potential difference, 5 levels” value in data set [2] is recorded as 5.
As to `CC(C)=CCOc1ccc(C(=O)NCCN2CCOCC2)cc1OCC=C(C)C` [Example 35], the cytotoxicity at 4 h, 100 µM in data set [1] was -17%. For the same compound, the “PD: change in gastric mucosal potential difference, 5 levels” value in data set [2] is 5.
The corresponding values for `CC(C)=CCC/C(C)=C/COc1ccc(C(=O)NCCN2CCOCC2)cc1` [Example 31] are 15% and 3.
